Biological target: T1, PI3Kα H1047R (T47D cells) (Homo sapiens, UniProt P42336, H1047R)
T1 construct: endogenous in cells; host or cells: T47D cells
Assay: PI3Kα cellular assay: pAKT HTRF in T47D cells after EGF stimulation
Assay type: cell-based
Conditions: for IC50: T47D cells (PI3Kα H1047R), pAKT S473 HTRF, EGF stimulation; for T47D pAKT S473 HTRF IC50 (H1047R): T47D (H1047R) selectivity over SKBR3 (WT): selectivity of T47D (H1047R) over SKBR3 (WT) pAKT IC50
How it was run: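 T47D cells (PIK3CA H1047R) serum-starved 16 h, then treated 1 h at 37 °C with compound (10,000 nM top, 3-fold steps to 0.5 nM). After 10 min stimulation with 20 ng/mL EGF, cells were lysed and pAKT measured by HTRF.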

T1 sequence (P42336 whole entry H1047R): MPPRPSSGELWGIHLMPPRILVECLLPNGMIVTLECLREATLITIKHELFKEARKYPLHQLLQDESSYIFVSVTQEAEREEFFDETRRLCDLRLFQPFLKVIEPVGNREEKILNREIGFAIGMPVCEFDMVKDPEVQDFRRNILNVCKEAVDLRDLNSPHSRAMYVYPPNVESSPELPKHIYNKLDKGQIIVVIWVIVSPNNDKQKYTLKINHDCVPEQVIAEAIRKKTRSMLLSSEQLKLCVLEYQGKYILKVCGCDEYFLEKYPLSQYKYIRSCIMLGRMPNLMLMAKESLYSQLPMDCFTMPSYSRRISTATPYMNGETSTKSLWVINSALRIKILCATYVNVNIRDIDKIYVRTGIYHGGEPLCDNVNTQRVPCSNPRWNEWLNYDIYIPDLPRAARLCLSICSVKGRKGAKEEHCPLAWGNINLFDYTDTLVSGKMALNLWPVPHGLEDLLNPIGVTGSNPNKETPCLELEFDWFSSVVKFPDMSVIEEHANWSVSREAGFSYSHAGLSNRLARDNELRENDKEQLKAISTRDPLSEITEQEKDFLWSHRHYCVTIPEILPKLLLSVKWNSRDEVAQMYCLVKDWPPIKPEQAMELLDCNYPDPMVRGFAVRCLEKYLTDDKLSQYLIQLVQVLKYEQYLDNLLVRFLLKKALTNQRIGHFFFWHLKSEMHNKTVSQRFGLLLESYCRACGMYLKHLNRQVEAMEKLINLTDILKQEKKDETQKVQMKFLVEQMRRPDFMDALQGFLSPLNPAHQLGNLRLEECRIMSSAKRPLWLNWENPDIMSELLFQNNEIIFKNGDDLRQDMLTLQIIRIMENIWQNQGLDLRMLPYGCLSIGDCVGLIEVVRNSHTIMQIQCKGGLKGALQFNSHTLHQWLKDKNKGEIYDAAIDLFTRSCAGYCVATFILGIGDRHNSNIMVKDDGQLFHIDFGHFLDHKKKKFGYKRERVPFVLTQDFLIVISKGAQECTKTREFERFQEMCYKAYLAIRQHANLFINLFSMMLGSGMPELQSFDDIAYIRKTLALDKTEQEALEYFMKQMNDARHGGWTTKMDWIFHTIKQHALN
T1 sequence (P27986 whole entry partner): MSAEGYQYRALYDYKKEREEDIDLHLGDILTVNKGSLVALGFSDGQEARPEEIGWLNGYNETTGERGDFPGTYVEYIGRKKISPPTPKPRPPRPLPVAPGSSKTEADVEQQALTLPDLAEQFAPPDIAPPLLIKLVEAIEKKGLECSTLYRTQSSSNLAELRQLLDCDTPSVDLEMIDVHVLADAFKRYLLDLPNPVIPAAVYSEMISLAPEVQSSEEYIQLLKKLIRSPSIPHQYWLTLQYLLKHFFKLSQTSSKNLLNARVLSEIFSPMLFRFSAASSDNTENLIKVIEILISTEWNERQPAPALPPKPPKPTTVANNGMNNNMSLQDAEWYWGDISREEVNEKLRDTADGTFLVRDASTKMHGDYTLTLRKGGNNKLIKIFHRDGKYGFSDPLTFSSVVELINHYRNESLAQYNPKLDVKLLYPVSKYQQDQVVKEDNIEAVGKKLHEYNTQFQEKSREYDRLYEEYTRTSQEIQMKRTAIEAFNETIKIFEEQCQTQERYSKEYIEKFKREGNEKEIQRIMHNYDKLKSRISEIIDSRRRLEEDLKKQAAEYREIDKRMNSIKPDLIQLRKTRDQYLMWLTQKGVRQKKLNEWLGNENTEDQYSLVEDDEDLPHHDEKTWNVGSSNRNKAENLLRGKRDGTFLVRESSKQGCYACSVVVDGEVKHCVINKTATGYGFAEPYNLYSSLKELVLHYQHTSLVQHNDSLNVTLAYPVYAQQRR

IC50 | T47D pAKT S473 HTRF IC50 (H1047R): T47D (H1047R) selectivity over SKBR3 (WT) | SMILES
100 to 500 nM | A (A denotes >20-fold) | Cc1cc([C@@H](C)Nc2ccccc2S(N)(=O)=O)c2nc(-c3ccc4c(C)nn(C5CC5)c4c3)c(C)c(=O)n2c1 [Compound 1027]
– | C (C denotes ≤5-fold) | Cc1cc([C@H](C)Nc2ccccc2S(N)(=O)=O)c2nc(-c3ccc4c(C)nn(C5CC5)c4c3)c(C)c(=O)n2c1 [Compound 1028]
> 2000 nM | C (C denotes ≤5-fold) | Cc1cc([C@H](C)Nc2ccccc2S(N)(=O)=O)c2nc(-c3ccc(F)c(C#N)c3)c(C)c(=O)n2c1 [Compound 1032]
100 to 500 nM | A (A denotes >20-fold) | Cc1cc(C(C)Nc2ccccc2S(N)(=O)=O)c2nc(-c3cccc(C#N)c3)c(C)c(=O)n2c1 (stereo not drawn) [Compound 1033]
< 100 nM | A (A denotes >20-fold) | Cc1cc([C@@H](C)Nc2ccccc2S(N)(=O)=O)c2nc(-c3cccc(C#N)c3)c(C)c(=O)n2c1 [Compound 1034]
> 2000 nM | C (C denotes ≤5-fold) | Cc1cc([C@H](C)Nc2ccccc2S(N)(=O)=O)c2nc(-c3cccc(C#N)c3)c(C)c(=O)n2c1 [Compound 1035]
< 100 nM | A (A denotes >20-fold) | C[C@@H]1C[C@H](C)CN(c2cc(=O)n3cc(C(F)(F)F)cc([C@@H](C)Nc4ccccc4C(=O)O)c3n2)C1 [Compound 1036]
> 2000 nM | C (C denotes ≤5-fold) | C=CC(=O)Nc1ccc(C(=O)O)c(NC(C)c2cc(C)cn3c(=O)c(C)c(N4Cc5ccccc5C4)nc23)c1 (stereo not drawn) [Compound 1039]
– | C (C denotes ≤5-fold) | CC(=O)NS(=O)(=O)c1ccccc1N[C@@H](C)c1cc(C)cn2c(=O)c(C)c(-c3ccc4c(c3)CC(F)(F)C4)nc12 [Compound 1040]
– | B (B denotes 20-fold≥value>5-fold) | CCc1c(-c2ccc3c(c2)c(C)cn3C)nc2c([C@H](C)Nc3ccccc3C(=O)O)cc(C)cn2c1=O [Compound 1043]
100 to 500 nM | A (A denotes >20-fold) | Cc1cc([C@@H](C)Nc2ccccc2C(=O)O)c2nc(-c3ccc4c(c3)c(C#N)nn4C3CC3)c(C)c(=O)n2c1 [Compound 1048]
> 2000 nM | C (C denotes ≤5-fold) | Cc1cc([C@H](C)Nc2ccccc2C(=O)O)c2nc(-c3ccc4c(c3)c(C#N)nn4C3CC3)c(C)c(=O)n2c1 [Compound 1049]
< 100 nM | A (A denotes >20-fold) | Cc1cc([C@@H](C)Nc2ccccc2C(=O)O)c2nc(-c3cnc4c(c3)c(C)cn4C)c(C)c(=O)n2c1 [Compound 1050]
– | C (C denotes ≤5-fold) | Cc1cc([C@H](C)Nc2ccccc2C(=O)O)c2nc(-c3cnc4c(c3)c(C)cn4C)c(C)c(=O)n2c1 [Compound 1051]
– | C (C denotes ≤5-fold) | Cc1cc([C@H](C)Nc2ccccc2C(=O)O)c2nc(-c3cnc4c(c3)c(C)cn4C)c(C)c(=O)n2c1 [Compound 1053]
– | B (B denotes 20-fold≥value>5-fold) | Cc1cc(C(C)Nc2ccccc2C(=O)O)c2nc(-c3cnc4c(c3)c(C)nn4C3CC3)c(C)c(=O)n2c1 (stereo not drawn) [Compound 1054]
100 to 500 nM | A (A denotes >20-fold) | Cc1cc([C@@H](C)Nc2ccccc2C(=O)O)c2nc(C3CCOCC3)c(C)c(=O)n2c1 [Compound 1055]

SMILES | IC50 | T47D pAKT S473 HTRF IC50 (H1047R): T47D (H1047R) selectivity over SKBR3 (WT)
Cc1cc([C@@H](C)Nc2ccccc2C(=O)O)c2nc(-c3cnc(C)c(Cl)c3)c(C)c(=O)n2c1 [Compound 1052] | 100 to 500 nM | A (A denotes >20-fold)

Source: patent US20260132129A1 (Genesis Therapeutics, Inc., priority 2022, published 2026)
